This passage reports inhibition results from US9481676B2, “Azepino[4,5-B]indoles and methods of use” (Medivation Technologies, Inc., priority 2008, dated 2016).

The structures appear in SMILES notation.

Assay [1] concerns the target T1, human recombinant histamine H1 receptor (Homo sapiens, UniProt P35367).
T1 construct: expressed in transfected cells; host or cells: CHO cells
Description: Histamine H1 radioligand binding ([3H]Pyrilamine). Particulars: compound at 1 μM; read-out: Histamine Binding (1 μM) H1, percent inhibition of specific binding. A digest of the protocol: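 Membranes from CHO cells expressing the receptor were incubated with compound and 1.2 nM [3H]pyrilamine for 180 min at 25 °C in 50 mM Tris-HCl pH 7.4 with MgCl2, NaCl and sucrose; 1 μM pyrilamine defined non-specific binding. Filter-bound radioactivity was counted.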

In assay [2] the target is T2, human recombinant histamine H2 receptor (Homo sapiens, UniProt P25021).
T2 construct: expressed in transfected cells; host or cells: CHO-K1 cells
The experiment in a line: Histamine H2 radioligand binding ([125I]Aminopotentidine). Particulars: compound at 1 μM; read-out: Histamine Binding (1 μM) H2, percent inhibition of specific binding. The method in brief:
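Membranes from CHO-K1 cells expressing recombinant human H2 receptor, in 50 mM phosphate buffer pH 7.4, incubated with 0.1 nM [125I]aminopotentidine for 120 min at 25 °C; nonspecific binding defined with 3 μM tiotidine.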

Assay [3] deals with T3, human recombinant adrenergic α1D receptor (Homo sapiens, UniProt P25100).
T3 construct: expressed in transfected cells; host or cells: HEK-293 cells
T3 sequence (P25100 1-572): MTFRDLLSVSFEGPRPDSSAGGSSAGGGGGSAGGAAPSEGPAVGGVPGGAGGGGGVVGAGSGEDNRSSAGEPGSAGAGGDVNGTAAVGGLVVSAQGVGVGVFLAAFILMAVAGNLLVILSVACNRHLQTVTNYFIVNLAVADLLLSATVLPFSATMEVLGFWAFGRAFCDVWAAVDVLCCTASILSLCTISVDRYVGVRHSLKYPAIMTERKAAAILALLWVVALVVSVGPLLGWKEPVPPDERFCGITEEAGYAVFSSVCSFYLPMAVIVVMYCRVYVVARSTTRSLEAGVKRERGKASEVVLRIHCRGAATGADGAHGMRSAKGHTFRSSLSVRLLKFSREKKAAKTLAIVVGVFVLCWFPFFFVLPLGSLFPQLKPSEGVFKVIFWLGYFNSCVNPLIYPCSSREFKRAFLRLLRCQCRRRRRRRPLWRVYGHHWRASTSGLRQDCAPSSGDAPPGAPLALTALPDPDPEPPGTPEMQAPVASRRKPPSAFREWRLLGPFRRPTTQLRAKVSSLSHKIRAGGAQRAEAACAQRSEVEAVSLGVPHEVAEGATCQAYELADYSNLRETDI
The experiment in a line: Adrenergic alpha1D radioligand binding ([3H]Prozosin). Particulars: compound at 1 μM; read-out: Adrenergic (1 μM) α1D, percent inhibition of specific binding. The method in brief: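 Membranes from HEK-293 cells expressing the human receptor in 50 mM Tris-HCl pH 7.4 were incubated 60 min at 25 °C with 0.6 nM [3H]prazosin. Nonspecific binding was defined with 10 μM phentolamine, and bound ligand measured by filtration.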

Assay [4] addresses T4, human recombinant serotonin (5-Hydroxytryptamine) 5-HT6 receptor (Homo sapiens, UniProt P50406).
T4 construct: expressed in transfected cells; host or cells: human HeLa cells
The experiment in a line: Serotonin 5-HT6 radioligand binding ([3H]LSD). Particulars: compound at 1 μM; read-out: Serotonin (1 μM) 5-HT6, percent inhibition of specific binding. A digest of the protocol: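 Human recombinant 5-HT6 receptor from HeLa cells incubated with 1.5 nM [3H]LSD for 120 min at 37° C in 50 mM Tris-HCl pH 7.4, 150 mM NaCl, 2 mM ascorbic acid, 0.001% BSA. Nonspecific binding defined with 5 μM serotonin; bound ligand counted after filtration.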

T2 sequence (P25021 whole entry): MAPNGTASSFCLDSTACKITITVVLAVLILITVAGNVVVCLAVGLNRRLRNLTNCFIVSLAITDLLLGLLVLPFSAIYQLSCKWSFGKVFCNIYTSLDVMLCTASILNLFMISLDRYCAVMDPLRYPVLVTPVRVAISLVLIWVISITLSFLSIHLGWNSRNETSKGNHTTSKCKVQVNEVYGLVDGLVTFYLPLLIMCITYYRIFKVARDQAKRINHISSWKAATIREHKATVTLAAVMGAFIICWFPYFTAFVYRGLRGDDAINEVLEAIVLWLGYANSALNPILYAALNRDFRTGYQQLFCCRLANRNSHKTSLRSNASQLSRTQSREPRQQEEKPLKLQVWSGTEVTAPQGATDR
T4 sequence (P50406 whole entry): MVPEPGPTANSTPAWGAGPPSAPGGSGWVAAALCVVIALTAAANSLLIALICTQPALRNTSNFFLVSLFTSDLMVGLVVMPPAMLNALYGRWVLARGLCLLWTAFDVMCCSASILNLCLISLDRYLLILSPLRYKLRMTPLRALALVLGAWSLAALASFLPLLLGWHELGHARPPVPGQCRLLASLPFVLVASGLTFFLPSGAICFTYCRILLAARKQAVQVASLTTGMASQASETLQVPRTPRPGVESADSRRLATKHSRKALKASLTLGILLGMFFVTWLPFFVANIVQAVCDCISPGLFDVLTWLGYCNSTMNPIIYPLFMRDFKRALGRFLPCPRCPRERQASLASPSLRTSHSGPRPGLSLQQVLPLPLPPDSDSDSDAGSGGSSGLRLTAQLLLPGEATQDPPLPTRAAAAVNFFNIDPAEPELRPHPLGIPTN
T1 sequence (P35367 whole entry): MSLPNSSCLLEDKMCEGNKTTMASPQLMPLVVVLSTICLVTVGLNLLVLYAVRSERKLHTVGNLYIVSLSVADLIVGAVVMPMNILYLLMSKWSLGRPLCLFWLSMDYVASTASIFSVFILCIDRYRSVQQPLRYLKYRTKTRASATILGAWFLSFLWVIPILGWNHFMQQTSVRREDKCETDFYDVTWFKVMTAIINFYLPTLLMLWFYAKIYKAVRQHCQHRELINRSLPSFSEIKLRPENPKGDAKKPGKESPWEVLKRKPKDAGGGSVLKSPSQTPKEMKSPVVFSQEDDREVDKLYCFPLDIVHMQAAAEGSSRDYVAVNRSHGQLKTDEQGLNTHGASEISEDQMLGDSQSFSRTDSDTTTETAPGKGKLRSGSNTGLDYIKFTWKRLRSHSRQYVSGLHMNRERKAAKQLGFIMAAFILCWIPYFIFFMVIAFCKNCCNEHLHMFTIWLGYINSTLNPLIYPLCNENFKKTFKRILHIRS

Usually inhibition stands for the relative decrease from the control value, in per cent. `COc1ccc(C(O)Cn2c3c(c4cc(Cl)ccc42)CCN(C)CC3)cc1F` (stereo not shown) [Compound No. 67, 2-(9-chloro-2,3,4,5-tetrahydro-3-methylazepino[4,5-b]indol-6(1H)-yl)-1-(3-fluoro-4-methoxyphenyl) ethanol]: the inhibition at 1 µM in assay [1] was 100%; in assay [2], 72%; in assay [3] it was 90%; in assay [4] it was 86%.

For `CN1CCc2c(n(/C=C/c3ccc(F)c(F)c3)c3ccc(Cl)cc23)CC1` [Compound No. 236, (E)-9-chloro-6-(3,4-difluorostyryl)-3-methyl-1,2,3,4,5,6-hexahydroazepino[4,5-b]indole], the inhibition at 1 µM was found to be 99% in assay [1], 97% in assay [2], 94% in assay [3] and 102% in assay [4].

Turning to `COc1ccc(/C=C/n2c3c(c4cc(C)ccc42)CCN(C)CC3)c(F)c1` [Compound No. 230, (E)-6-(2-fluoro-4-methoxystyryl)-3,9-dimethyl-1,2,3,4,5,6-hexahydroazepino[4,5-b]indole], the inhibition at 1 µM in assay [1] was 95%; in assay [2] it was 89%; in assay [3], 97%; in assay [4], 100%.

With `Cc1ccc2c(c1)c1c(n2CC(=O)N2CCCCC2)CCN(C)CC1` [Compound No. 32, 2-(2,3,4,5-tetrahydro-3,9-dimethylazepino[4,5-b]indol-6(1H)-yl)-1-(piperidin-1-yl)ethanone], the inhibition at 1 µM in assay [1] is 11%; in assay [2] it was -5%; in assay [3] it was 4%; in assay [4], 4%.
